The values below come from ChEMBL document CHEMBL5505953, “Facilitating the development of molecular glues: Opportunities from serendipity and rational design” (Eur J Med Chem, 2024).

One may read the IC50 as the concentration at which inhibition is half-maximal. The EC50 is the concentration needed to bring the measured effect to its halfway point. A low value points to higher potency in that assay.

The test system of test [1] is LN-229. Put plainly: cells. The following applies: Homo sapiens, LN-229, 144 h.
Test [2] has as its system HeLa. Put plainly: cells. The following applies: Homo sapiens, 48 h.
The test system of test [3] is A549. Put plainly: cells. As to conditions: Homo sapiens, A549, 48 h.
The test system of test [4] is MCF7. Put plainly: cells. The following applies: Homo sapiens, MCF7, 48 h.
Test [5] has as its system PC-3. Put plainly: cells. As to conditions: Homo sapiens, PC-3, 48 h.
For test [6], the system named is NCI-H2122. Put plainly: cells. As to conditions: Homo sapiens, NCI-H2122, 48 h.
Test [7] deals with NCI-H1563. Put plainly: cells. As to conditions: Homo sapiens, NCI-H1563, 48 h.
For test [8], the target named is RNA-binding protein 39 (Homo sapiens, UniProt Q14498).
In test [9] the target is B-cell lymphoma 6 protein (Homo sapiens, UniProt P41182).
In test [10] the target is Protein cereblon/Zinc finger protein Helios (Homo sapiens, UniProt Q96SW2+Q9UKS7). As to conditions: hek293t.
In test [11] the target is Cyclin-K (Homo sapiens, UniProt O75909). As to conditions: hct-116.
Test [12] concerns A549. Put plainly: cells. The following applies: Homo sapiens, A549, 72 h.
Test [13] has as its system HCT-116. Put plainly: cells. The following applies: Homo sapiens, HCT-116, 72 h.
Test [14] addresses Estrogen receptor (Homo sapiens, UniProt P03372).
Test [15] addresses Protein cereblon/Tyrosine-protein kinase BTK (Homo sapiens, UniProt Q06187+Q96SW2). The following applies: ramos.
The target in test [16] is Cereblon/Casein kinase I alpha (Homo sapiens, UniProt P48729+Q96SW2). The following applies: molm-13.
The target in test [17] is Cystic fibrosis transmembrane conductance regulator (Homo sapiens, UniProt P13569).
For test [18], the system named is MDA-MB-231. Put plainly: cells. As to conditions: Homo sapiens, MDA-MB-231, 48 h.
The subject of test [19] is HCC38. Put plainly: cells. The following applies: Homo sapiens, HCC38, 48 h.
Test [20] has as its target CDK12/Cyclin K (Homo sapiens, UniProt Q9NYV4).
Test [21] has as its target 14-3-3 protein beta/alpha (Homo sapiens, UniProt P31946).
In test [22] the target is Protein cereblon (Homo sapiens, UniProt Q96SW2).
Chain of Protein cereblon (Q96SW2 whole entry): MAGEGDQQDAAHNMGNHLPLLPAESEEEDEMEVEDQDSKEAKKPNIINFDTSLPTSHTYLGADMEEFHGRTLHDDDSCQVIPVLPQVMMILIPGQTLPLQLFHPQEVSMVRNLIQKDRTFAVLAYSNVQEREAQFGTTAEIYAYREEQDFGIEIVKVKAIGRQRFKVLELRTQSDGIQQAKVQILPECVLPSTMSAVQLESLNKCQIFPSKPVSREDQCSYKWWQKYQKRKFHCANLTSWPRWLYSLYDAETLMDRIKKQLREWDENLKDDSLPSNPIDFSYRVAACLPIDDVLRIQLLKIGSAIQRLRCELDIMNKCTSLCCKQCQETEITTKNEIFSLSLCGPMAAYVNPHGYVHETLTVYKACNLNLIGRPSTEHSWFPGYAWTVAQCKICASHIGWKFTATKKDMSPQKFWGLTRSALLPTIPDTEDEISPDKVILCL

Chain of CDK12/Cyclin K (O75909 whole entry): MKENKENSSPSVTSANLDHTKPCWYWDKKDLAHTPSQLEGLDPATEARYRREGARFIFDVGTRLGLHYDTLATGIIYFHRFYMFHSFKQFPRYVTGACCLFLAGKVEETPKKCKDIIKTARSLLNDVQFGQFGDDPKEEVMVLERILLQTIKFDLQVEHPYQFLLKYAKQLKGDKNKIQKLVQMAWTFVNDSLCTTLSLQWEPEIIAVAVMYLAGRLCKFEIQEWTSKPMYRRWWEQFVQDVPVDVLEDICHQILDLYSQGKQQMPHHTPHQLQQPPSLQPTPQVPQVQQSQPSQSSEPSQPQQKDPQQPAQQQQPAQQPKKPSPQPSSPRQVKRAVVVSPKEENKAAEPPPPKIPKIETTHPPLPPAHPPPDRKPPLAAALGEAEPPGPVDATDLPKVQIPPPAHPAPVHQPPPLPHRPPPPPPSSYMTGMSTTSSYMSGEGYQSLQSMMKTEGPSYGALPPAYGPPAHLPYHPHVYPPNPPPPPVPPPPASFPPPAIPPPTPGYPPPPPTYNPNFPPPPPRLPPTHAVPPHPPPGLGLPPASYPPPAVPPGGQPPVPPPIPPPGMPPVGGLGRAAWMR
Chain of CDK12/Cyclin K (Q9NYV4 whole entry): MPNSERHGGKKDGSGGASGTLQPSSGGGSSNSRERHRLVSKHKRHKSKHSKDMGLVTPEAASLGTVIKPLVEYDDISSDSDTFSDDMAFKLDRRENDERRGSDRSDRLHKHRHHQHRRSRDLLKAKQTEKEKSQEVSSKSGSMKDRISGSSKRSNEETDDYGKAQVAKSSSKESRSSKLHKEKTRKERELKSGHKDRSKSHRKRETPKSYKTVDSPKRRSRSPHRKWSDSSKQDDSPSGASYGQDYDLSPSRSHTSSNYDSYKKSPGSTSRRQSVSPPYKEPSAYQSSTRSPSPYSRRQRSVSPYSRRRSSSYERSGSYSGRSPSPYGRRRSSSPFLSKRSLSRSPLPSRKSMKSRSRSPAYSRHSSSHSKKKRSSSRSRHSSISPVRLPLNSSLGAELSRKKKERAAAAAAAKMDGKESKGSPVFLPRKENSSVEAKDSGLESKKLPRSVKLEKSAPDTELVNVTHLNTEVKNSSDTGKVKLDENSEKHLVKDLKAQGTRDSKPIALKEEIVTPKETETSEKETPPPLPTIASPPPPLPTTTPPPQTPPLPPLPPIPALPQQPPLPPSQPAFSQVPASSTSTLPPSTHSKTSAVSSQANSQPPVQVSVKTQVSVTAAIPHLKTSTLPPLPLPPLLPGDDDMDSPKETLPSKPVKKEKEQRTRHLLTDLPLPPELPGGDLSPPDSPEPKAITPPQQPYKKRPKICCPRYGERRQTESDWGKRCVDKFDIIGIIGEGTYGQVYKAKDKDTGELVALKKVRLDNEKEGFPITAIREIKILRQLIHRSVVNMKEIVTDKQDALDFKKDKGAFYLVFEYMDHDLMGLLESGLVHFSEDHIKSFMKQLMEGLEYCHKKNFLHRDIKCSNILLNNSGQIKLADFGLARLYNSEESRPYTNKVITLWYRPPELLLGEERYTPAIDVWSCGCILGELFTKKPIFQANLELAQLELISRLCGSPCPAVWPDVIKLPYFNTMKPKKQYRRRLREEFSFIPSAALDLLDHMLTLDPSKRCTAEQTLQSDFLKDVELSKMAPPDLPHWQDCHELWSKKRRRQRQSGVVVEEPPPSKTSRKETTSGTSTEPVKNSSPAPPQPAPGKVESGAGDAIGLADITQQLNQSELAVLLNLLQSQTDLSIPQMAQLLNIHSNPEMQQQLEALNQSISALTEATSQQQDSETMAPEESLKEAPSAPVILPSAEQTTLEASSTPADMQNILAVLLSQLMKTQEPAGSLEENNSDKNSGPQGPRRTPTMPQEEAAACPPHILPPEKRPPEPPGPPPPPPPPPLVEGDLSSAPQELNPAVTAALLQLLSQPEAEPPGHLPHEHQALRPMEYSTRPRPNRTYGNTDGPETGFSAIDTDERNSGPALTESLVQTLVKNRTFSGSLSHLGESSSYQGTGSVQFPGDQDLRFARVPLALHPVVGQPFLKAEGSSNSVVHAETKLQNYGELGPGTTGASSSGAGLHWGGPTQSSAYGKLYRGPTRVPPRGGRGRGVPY
Chain of Protein cereblon/Zinc finger protein Helios (Q96SW2 whole entry): as the sequence (Q96SW2 whole entry) above
Chain of Protein cereblon/Zinc finger protein Helios (Q9UKS7 whole entry): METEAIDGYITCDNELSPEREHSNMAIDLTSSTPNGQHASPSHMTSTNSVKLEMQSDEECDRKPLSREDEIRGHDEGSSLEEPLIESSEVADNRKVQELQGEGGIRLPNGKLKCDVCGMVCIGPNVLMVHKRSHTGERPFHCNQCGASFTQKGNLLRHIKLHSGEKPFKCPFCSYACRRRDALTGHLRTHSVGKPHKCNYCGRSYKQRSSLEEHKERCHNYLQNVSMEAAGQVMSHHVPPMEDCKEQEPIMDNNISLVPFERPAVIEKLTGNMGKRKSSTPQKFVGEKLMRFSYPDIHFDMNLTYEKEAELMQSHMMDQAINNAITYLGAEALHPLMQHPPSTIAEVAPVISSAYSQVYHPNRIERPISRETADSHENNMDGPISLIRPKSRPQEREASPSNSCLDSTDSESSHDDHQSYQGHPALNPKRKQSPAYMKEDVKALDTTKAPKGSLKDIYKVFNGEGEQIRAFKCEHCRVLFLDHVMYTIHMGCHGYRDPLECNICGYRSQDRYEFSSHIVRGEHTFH
Chain of 14-3-3 protein beta/alpha (P31946 whole entry): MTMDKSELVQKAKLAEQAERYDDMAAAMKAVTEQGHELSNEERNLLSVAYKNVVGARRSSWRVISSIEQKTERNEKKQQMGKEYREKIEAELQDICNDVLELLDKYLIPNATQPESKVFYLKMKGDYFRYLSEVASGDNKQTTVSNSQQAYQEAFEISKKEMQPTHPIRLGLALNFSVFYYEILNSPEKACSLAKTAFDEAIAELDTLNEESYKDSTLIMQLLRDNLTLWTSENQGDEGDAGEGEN
Chain of Estrogen receptor (P03372 whole entry): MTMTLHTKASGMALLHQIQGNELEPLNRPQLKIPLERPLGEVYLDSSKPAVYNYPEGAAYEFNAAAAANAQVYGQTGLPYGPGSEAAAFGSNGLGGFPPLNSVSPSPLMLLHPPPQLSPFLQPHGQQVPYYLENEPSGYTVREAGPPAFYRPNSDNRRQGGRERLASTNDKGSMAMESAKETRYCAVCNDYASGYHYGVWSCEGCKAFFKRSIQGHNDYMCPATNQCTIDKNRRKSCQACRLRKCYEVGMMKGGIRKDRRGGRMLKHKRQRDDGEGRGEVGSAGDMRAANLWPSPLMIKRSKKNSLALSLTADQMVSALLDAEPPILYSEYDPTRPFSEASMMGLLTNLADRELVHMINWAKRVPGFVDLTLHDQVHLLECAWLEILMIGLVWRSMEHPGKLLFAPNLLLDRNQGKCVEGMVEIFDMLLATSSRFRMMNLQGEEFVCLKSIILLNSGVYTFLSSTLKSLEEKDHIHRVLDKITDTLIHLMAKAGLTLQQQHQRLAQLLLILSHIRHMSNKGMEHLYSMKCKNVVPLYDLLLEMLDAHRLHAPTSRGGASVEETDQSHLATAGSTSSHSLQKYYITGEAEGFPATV
Chain of Cereblon/Casein kinase I alpha (P48729 whole entry): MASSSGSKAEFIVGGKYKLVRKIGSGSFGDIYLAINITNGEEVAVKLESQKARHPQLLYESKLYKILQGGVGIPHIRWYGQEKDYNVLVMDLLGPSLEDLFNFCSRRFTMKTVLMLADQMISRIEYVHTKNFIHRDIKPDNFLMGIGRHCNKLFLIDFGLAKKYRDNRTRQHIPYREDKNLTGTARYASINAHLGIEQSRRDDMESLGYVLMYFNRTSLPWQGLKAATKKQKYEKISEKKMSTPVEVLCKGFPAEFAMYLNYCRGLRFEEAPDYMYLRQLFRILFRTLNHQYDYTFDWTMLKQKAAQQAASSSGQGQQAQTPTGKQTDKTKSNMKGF
Chain of Cereblon/Casein kinase I alpha (Q96SW2 whole entry): as the sequence (Q96SW2 whole entry) above
Chain of Cyclin-K (O75909 whole entry): as the sequence (O75909 whole entry) above
Chain of RNA-binding protein 39 (Q14498 whole entry): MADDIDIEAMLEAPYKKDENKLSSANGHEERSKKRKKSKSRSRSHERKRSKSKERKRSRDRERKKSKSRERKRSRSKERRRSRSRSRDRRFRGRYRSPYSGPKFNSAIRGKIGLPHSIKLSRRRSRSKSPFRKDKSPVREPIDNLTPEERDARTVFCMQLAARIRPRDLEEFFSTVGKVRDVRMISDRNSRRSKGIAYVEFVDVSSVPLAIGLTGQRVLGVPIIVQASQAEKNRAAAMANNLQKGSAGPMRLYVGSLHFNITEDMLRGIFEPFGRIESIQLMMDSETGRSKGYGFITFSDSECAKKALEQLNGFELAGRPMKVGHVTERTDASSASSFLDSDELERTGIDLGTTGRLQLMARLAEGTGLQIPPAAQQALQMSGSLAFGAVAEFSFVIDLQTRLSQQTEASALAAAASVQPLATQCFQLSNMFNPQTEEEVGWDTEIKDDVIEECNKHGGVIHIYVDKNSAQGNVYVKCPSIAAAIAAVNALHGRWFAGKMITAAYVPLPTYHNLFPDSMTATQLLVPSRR

`O=C(Nc1ccc(Cl)c([N+](=O)[O-])c1)Nc1nc2ccccc2s1` displayed an IC50 in [1] of 2300 nM.
As for `CCN(CC)c1ccc(C2=NNC(=O)CC2C)cc1[N+](=O)[O-]` (stereo unspecified), the concentration giving a half-maximal response (EC50) in test [2], in test [3], in test [4], in [5], in [6] and in [7] was 10 nM in each case.
`Cc1ccc(S(=O)(=O)N/N=C/c2cc(Br)ccc2O)cc1` displayed a half-maximal inhibitory concentration (IC50) in test [8] of 400 nM. In other words, the sub-micromolar range.
In the case of `CNC(=O)COc1cc2cc(Nc3nc(N4C[C@H](C)C[C@H](C)C4)ncc3Cl)ccc2n(C)c1=O`, the IC50 in [9] was under 3 nM.
In test [10], `O=C1CCC(N2Cc3cc(C4CCN(Cc5ccccc5)CC4)ccc3C2=O)C(=O)N1` (stereo unspecified) displayed a DC50 of 4000 nM.
The same measure, in the same setting: then `O=C1CCC(N2Cc3cc(C4CCNCC4)ccc3C2=O)C(=O)N1` (stereo unspecified), with over 50000 nM.
`Cc1cccc(Nc2nc(CC(=O)Nc3ncc(C)s3)cs2)n1` registered a DC50 in test [11] of 132 nM. The IC50 in test [12] and in test [13] was 1300 nM in each case.
In [14], `O=C(C1=C(O)C(=O)N(c2ccccc2O)C1c1ccc([N+](=O)[O-])cc1)c1ccccc1` (stereo unspecified) returned an IC50 of 75000 nM.
On to `Nc1ncnc2c1c(-c1ccc(Oc3ccccc3)cc1)nn2[C@H]1CCCN(C(=O)CCCCCCCCNc2ccc3c(c2)C(=O)N(C2CCC(=O)NC2=O)C3=O)C1` (stereo partly specified), for which the DC50 in [15] stood at 50 nM.
Consider `O=C1CCC(N2Cc3c(CNC(=O)c4ccc(F)cc4)cccc3C2=O)C(=O)N1` (stereo unspecified), for which the DC50 in test [16] was 11 nM.
`N=C(N)NCCC[C@@H]1NCc2ccccc2Sc2ccccc2CNC(=O)[C@H](Cc2ccc(O)cc2)NC(=O)[C@H](CCCN)NC1=O` registered an IC50 in [17] of 36100 nM. That is a double-digit micromolar value.
For `O=C(/C=C/C=C/C=C/C1CCCCC1)NC1=C[C@@](O)(/C=C/C=C/C=C/C(=O)NC2=C(O)CCC2=O)[C@@H]2O[C@@H]2C1=O`, the concentration giving a half-maximal response (EC50) in test [18] was determined as 13800 nM; in [19], 4500 nM.
Molecule `N#Cc1ccc2nc(NC(=O)Nc3cccc(Cl)c3)sc2c1` registered a half-maximal inhibitory concentration (IC50) in [1] of 850 nM.
For the molecule `O=C(CSc1nnc2c(n1)[nH]c1ccccc12)Nc1ccc(Cl)cn1`, the IC50 in [20] turned out to be 400 nM.
The same measure, in the same setting: as for `O=C(CSc1nc2ccccc2[nH]1)Nc1ccc(Cl)cn1`, the figure is 400 nM.
In test [21], `O=C(COc1ccccc1P(=O)(O)O)NCCc1ccccc1` displayed a half-maximal inhibitory concentration (IC50) of 5200 nM.
`Cc1ccc(C(=O)N2CSCC2C(=O)/N=c2/[nH]cc(C)s2)o1` (stereo unspecified) displayed a concentration for half-maximal inhibition (IC50) in test [20] of 400 nM.
In turn, `NS(=O)(=O)c1ccc(S(=O)(=O)Nc2cccc3c(Cl)c[nH]c23)cc1` displayed an IC50 in test [22] of 360 nM.
